Measured values published in article PMC9081821 (Steroids, 2022).

What was measured:
[1] = biological target: T1, human GR (glucocorticoid receptor) (Homo sapiens, UniProt P04150); assay type: cell-based; details: for IC50 (M) ± SEM: 20 nM [3H]-DEX, 3 h
T1 sequence (P04150 1-777): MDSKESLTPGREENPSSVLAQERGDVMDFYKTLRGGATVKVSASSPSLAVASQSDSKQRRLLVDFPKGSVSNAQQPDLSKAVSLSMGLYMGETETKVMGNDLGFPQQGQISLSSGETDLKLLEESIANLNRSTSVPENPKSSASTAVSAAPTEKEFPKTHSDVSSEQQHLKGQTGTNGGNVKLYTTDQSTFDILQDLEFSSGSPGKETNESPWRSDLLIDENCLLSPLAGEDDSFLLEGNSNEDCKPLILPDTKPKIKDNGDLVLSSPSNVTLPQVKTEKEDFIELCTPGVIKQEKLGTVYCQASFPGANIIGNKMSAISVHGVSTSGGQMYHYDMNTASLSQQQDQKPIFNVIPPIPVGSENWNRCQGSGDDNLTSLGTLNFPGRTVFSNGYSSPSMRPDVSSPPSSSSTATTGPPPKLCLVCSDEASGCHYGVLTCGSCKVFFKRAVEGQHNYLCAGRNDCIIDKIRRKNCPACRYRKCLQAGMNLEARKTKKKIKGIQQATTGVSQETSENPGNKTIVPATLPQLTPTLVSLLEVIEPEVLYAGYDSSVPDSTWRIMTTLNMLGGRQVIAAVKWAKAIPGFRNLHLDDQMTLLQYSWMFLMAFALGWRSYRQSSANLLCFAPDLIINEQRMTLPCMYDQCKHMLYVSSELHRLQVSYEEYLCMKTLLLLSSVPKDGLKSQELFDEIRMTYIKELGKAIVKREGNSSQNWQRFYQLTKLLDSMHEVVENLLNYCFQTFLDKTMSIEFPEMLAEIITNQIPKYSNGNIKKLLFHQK

[2] = biological target: T1, human GR (glucocorticoid receptor); assay: GRE-luciferase reporter transactivation in transfected COS-1 cells; assay type: cell-based

Row | SMILES | IC50 (M) ± SEM [1] | EC50 [2] [nM] | IC50 [1] [nM]
1 | C#C[C@]1(O)CC[C@H]2[C@@H]3CCC4=CC(=O)CC[C@@H]4[C@H]3C(=C)C[C@@]21CC [etonogestrel] | 1.15 ± 5.2 × 10^-8 M | 31.9 | –
2 | C#C[C@]1(O)CC[C@H]2[C@@H]3CCC4=CC(=O)CC[C@@H]4[C@H]3CC[C@@]21CC [levonorgestrel] | 1.35 ± 9.1 × 10^-7 M | – | –
3 | CC(=O)O[C@]1(C(C)=O)CC[C@H]2[C@@H]3C[C@H](C)C4=CC(=O)CC[C@]4(C)[C@H]3CC[C@@]21C [medroxyprogesterone acetate] | – | 41.7 | 5.58
4 | C=C1C[C@H]2[C@@H]3CCC4=CC(=O)CC[C@@H]4[C@H]3CC[C@]2(C)[C@@]1(OC(C)=O)C(C)=O [nestorone] | – | 18.5 | 57.3
